Test results from patent US9150539B2, “Crystalline form of a reverse transcriptase inhibitor” (Merck Sharp & Dohme Corp., priority 2012, dated 2015).

Assay: Relative thermodynamic stability of crystalline anhydrous Forms I and II (competitive slurry experiments)
Assay type: physicochemical
Protocol: Competitive slurry experiments were conducted to determine the relative stability of anhydrous Form I and II.

thermodynamic stability (at room temperature)	kinetic preference of form (at room temperature)	conversion rate from AHI to AHII (in solution, under general processing conditions)	Compound
more thermodynamically stable			Cn1c(Cn2ccc(C(F)(F)F)c(Oc3cc(Cl)cc(C#N)c3)c2=O)n[nH]c1=O [anhydrous Form II, 3-chloro-5-({1-[(4-methyl-5-oxo-4,5-dihydro-1H-1,2,4-triazol-3-yl)methyl]-2-oxo-4-(trifluoromethyl)-1,2-dihydropyridin-3-yl}oxy)benzonitrile]
	kinetically favored	very slow	Cn1c(Cn2ccc(C(F)(F)F)c(Oc3cc(Cl)cc(C#N)c3)c2=O)n[nH]c1=O [anhydrous Form I, 3-chloro-5-({1-[(4-methyl-5-oxo-4,5-dihydro-1H-1,2,4-triazol-3-yl)methyl]-2-oxo-4-(trifluoromethyl)-1,2-dihydropyridin-3-yl}oxy)benzonitrile]
